The subject of one test is M. intracellulare. Briefly: Test for studying disinfecting effect of chlorous acid aqueous solution and sodium hypochlorite on M. intracellulare. It is filed as cell-based, Mycobacterium intracellulare. The following applies: for free chlorine concentration (as Cl) at which a disinfecting effect (reducing the bacteria count 4 log or greater) is exhibited: contact time 1 min. On the procedure:
(§1) As a measuring method of free chlorine (as Cl), a buffer and a DPD indicator are added to a sample and a wavelength of 510 nm is measured with an absorption spectrophotometer, and for measurement of free chlorine (as Cl) in the presence of an organic matter, measurement is taken at a wavelength of 655 nm using a TMB reagent to find the concentration from the measurement values. Further, a method of conducting a test for studying the disinfecting effect prepares free chlorine (as Cl) of a test agent by a DPD method, contacts each agent with an organic matter-containing bacterial solution, neutralizes the solution with sodium thiosulfate after a certain period of time has passed, and checks the viable bacteria count of the neutral solution.
For the “chlorous acid aqueous solution formulation manufactured with chlorous acid aqueous solution” prepared based on the preparation method described above, the concentration of “chlorous acid aqueous solution” was measured based on the “Quantification method of chlorous acid aqueous solution” described above, and buffer prepared to achieve the free chlorine concentration described in each Example (phosphate buffer comprising dipotassium hydrogen phosphate and potassium dihydrogen phosphate) was used to prepare the chlorous acid aqueous solution of each Example.
The disinfecting effects of chlorous acid aqueous solutions and sodium hypochlorite on M. intracellulare were studied in the absence of an organic matter and in the presence of an organic matter, i.e., 0.5% bovine serum albumin (hereinafter, BSA) (FIG. 1). If an effect of reducing the bacteria count is 4 log or greater, the agent is considered as having a disinfecting effect.

The test system of test [1] is chromosomal DNA of M. intracellulare. Briefly: Pulsed-field gel electrophoresis of chromosomal DNA after disinfection of M. intracellulare. It is filed as cell-based, Mycobacterium intracellulare. As to conditions: compared with water. The source says:
In order to study the disinfection mechanism of chlorous acid aqueous solutions, with the understanding that a chlorous acid aqueous solution is unlikely to disinfect by acting on the bacterial surface in view of the results of SEM, chromosomal DNA was extracted from bacteria after disinfection, and the state of the chromosomal DNA was examined through pulsed-field gel electrophoresis in order to study the effect of a chlorous acid aqueous solution on chromosomal DNA of bacteria.

Test [2] deals with other mycobacteria (JCM135429, JCM135430, JCM135431, JCM135432, JCM6387, JCM6390, JCM13569). Description: Disinfecting effect on other mycobacteria. It is filed as cell-based. On the procedure:
as §1
Additional studies were conducted to find whether a disinfecting effect is observed on other mycobacteria. In the absence of organic matters, an effect of chlorous acid aqueous solutions was also observed on other mycobacteria at free chlorine of 50 ppm or greater, whereas an effect was not observed from sodium hypochlorite at 200 ppm (FIG. 7). The same results as the results for M. intracellulare were obtained.

In the case of `OCl` [sodium hypochlorite], in the test on M. intracellulare (absence and presence of organic matter (0.5% BSA)), the “disinfecting effect (FIG. 1)” value is recorded as “not found”. For the same compound, the “free chlorine concentration (as Cl) at which a disinfecting effect (reducing the bacteria count 4 log or greater) is exhibited” value in the test with M. intracellulare (absence of an organic matter) is on record as over 200 ppm; in the test on M. intracellulare (presence of an organic matter (0.5% BSA)), over 1000 ppm. Moreover, the “state of chromosomal DNA band in pulsed-field gel electrophoresis” value in test [1] was “a band is formed at the same position as water”. Moreover, the “free chlorine at which a disinfecting effect was observed” value is recorded as over 200 ppm in test [2] (absence of organic matters (FIG. 7)) and over 1000 ppm in test [2] (presence of 0.5% BSA (FIG. 8)).
